According to BindingDB's records for patent US20240051954 (Novartis, 2024):

Biological target: T1, Cyclic GMP-AMP synthase [147-522] (Homo sapiens, UniProt Q8N884)
T1 construct: 147-522
Assay: Quantification of cGAS Protein Inhibition
Method: The enzyme solution was transferred into the reagent buffer to give a final concentration of 30 nM. […] The reaction plates were then centrifuged at 1000 rpm for 1 minute and incubated at room temperature for 1 h. […] The concentration of cGAMP was measured on a LC-MS/MS system consisting of a THERMO Dionex Ultimate LC system with a high pressure pump, an autosampler, a column heating compartment (Reinach, Switzerland) and a SCIEX Triple Quad 5500 (Framingham, MA, USA) mass spectrometer for detection. The sample plates were centrifuged for 10 minutes at 2000 rpm. Up to three plates were placed in the autosampler for injection. […] An isocratic flow of 1.0 mL/min solvent (60% ACN, 8 mM ammonium acetate, 5 mM ammonium hydroxide, 0.04% acetic acid) was applied and sprayed into the ion source of the mass spectrometers. The MS parameters were optimized based on the properties of the compounds to be detected and run in positive multi-reaction mode (MRM) based on the mass transitions. LC and MS parameters were also optimized to allow for a sample-to-sample measuring time of approximately 75 sec and a run time of 8 hours per 384-well plate. All data were analyzed with Excel; and the dose response curves were generated using the auto fitting function of XLfit.

T1 sequence (Q8N884 147-522): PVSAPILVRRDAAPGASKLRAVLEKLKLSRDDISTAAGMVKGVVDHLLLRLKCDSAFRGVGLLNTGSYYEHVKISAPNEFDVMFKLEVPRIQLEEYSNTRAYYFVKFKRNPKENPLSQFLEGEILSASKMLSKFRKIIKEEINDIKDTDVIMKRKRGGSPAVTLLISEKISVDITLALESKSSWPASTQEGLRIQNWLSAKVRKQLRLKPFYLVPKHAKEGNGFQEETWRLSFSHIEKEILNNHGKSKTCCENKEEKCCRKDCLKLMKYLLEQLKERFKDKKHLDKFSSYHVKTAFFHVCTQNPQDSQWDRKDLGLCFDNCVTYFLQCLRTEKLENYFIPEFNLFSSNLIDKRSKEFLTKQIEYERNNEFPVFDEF

COc1nc2c(-n3ccnc3)c(-c3nnc(C(O)C(F)F)[nH]3)n(C)c2cc1Cl (stereo unspecified) [US20240051954, Example 21]
IC50: 121 nM
